How the values were obtained:
[1] = biological target: T1, human histamine H3 receptor (Homo sapiens, UniProt Q9Y5N1); test: Human histamine H3 receptor binding assay, [3H](R)-α-methylhistamine displacement; conditions: SK-N-MC cell homogenates expressing hH3R; 0.5 nM [3H](R)-α-methylhistamine; mean ± SEM of three experiments
T1 construct: expressed in transfected cells; host or cells: SK-N-MC cells
Experimental: Homogenates of SK–N–MC cells expressing human histamine H3 receptors (hH3Rs) were used to determine affinity values of the new compounds in radioligand displacement studies according to Lovenberg et al.’s method. SK–N–MC cells in confluent culture plates were harvested using trypsin digestion and then centrifuged for 5 min at 1100 rpm. Pellets, either fresh or stored at −80 °C until the moment of use, were mechanically homogenized with Potter-Elvhejem in 20 mM Tris-HCl/0.5 mM EDTA. Supernatants from a 2000 rpm spin (10 min) were collected and re-centrifuged at 10,000 rpm for 30 min. Pellets were re-homogenized in 50 mM Tris-HCl/5 mM EDTA (pH 7.4). Membranes were incubated for 60 min at room temperature with 0.5 nM [^3H](R)-α-methylhistamine in 50 mM Tris-HCl/5 mM EDTA (pH 7.4) with or without competing ligands. Each concentration was tested in triplicate. Incubation was terminated by rapid filtration over Millipore (Darmstadt, Germany) AAWPO2500 filters followed by two washes with ice-cold buffer (50 mM Tris-HCl/5 mM EDTA). Filters retained radioactivity was determined by liquid scintillation counting (Ultima Gold XR Perkin Elmer (Waltham, MA, USA) scintillation liquid, Tri-Carb 2810 TR Perkin Elmer (Waltham, MA, USA) Liquid Scintillation Analyzer). […] Data are expressed as mean ± SEM of three independent experiments.

human MT2 receptor [2] = biological target: T2, human MT2 receptor (Homo sapiens, UniProt P49286); test: Human MT2 melatonin receptor binding assay, 2-[125I]iodomelatonin competition; conditions: cloned human MT2 in NIH3T3 cell membranes; 2-[125I]iodomelatonin 100 pM; N.A. = Not active up to 100 μM
T2 construct: expressed in transfected cells; host or cells: NIH3T3 fibroblast cells
T2 sequence (P49286 1-362): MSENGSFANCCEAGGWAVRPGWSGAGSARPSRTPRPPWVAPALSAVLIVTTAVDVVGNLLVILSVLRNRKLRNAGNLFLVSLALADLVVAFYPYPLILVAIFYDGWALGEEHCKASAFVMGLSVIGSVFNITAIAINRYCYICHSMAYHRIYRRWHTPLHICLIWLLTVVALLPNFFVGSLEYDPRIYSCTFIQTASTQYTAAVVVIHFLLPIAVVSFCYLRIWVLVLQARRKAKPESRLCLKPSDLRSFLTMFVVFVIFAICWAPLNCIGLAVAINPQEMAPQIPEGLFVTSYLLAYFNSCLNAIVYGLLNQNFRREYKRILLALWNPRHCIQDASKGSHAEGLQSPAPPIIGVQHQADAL
Experimental: (§1) Binding affinities were determined using 2-[^125I]iodomelatonin as the labeled ligand in competition experiments with cloned human MT1 and MT2 receptors expressed in NIH3T3 […] fibroblast cells. The characterization of NIH3T3 MT1 and MT2 cells was already described in detail. Membranes were incubated for 90 min at 37 °C in binding buffer (50 mM Tris/HCl, pH 7.4). The final membrane concentration was 5–10 μg of protein per tube. The membrane protein level was determined in accordance with a previously reported method. 2-[^125I]Iodomelatonin (100 pM) and different concentrations of the tested compounds were incubated with the receptor preparation for 90 min at 37 °C. […] The pKi values were calculated from the IC50 values according to the Cheng–Prusoff equation [51]. The pKi values are the mean of at least three independent determinations performed in duplicate.

human MT1 receptor [3] = biological target: T3, human MT1 receptor (Homo sapiens, UniProt P48039); test: Human MT1 melatonin receptor binding assay, 2-[125I]iodomelatonin competition; conditions: cloned human MT1 in NIH3T3 cell membranes; 2-[125I]iodomelatonin 100 pM; N.A. = Not active up to 100 μM
T3 construct: expressed in transfected cells; host or cells: NIH3T3 fibroblast cells
T3 sequence (P48039 whole entry): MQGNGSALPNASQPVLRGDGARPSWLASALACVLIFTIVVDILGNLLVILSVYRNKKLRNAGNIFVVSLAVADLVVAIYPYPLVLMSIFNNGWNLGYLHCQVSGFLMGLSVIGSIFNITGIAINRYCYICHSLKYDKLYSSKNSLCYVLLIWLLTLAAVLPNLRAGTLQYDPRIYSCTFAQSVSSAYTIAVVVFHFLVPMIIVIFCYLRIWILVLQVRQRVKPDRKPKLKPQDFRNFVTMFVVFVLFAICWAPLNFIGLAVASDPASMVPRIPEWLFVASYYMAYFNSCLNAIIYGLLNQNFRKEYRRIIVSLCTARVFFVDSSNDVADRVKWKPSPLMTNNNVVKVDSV
Experimental: as §1

human MT1 receptor [4] = biological target: T3, human MT1 receptor; test: [35S]GTPγS binding assay, human MT1 receptor; assay type: biochemical
Experimental: (§2) To determine the functional activity of compound 14d at MT1 and MT2 receptor subtypes, [^35S]GTPγS binding assays in NIH3T3 cells expressing human-cloned MT1 or MT2 receptors were performed. The amount of bound [^35S]GTPγS is proportional to the level of the analog-induced G protein activation and is related to the intrinsic activity of the compound under study. The detailed description and validation of this method were reported elsewhere. Membranes (15–25 μg of protein, final incubation volume 100 μL) were incubated at 30 °C for 30 min in the presence and absence 14d, in assay buffer consisting of [^35S]GTPγS (0.3–0.5 nM), GDP (50 μM), NaCl (100 mM), and MgCl2 (3 mM). Nonspecific binding was defined using GTPγS (10 μM). […] Basal stimulation is the amount of [^35S]GTPγS specifically bound in the absence of compounds and was taken as 100%. […] All of the measurements were performed in triplicate.

human MT2 receptor [5] = biological target: T2, human MT2 receptor; test: [35S]GTPγS binding assay, human MT2 receptor; assay type: biochemical
Experimental: as §2

T1 sequence (Q9Y5N1 whole entry): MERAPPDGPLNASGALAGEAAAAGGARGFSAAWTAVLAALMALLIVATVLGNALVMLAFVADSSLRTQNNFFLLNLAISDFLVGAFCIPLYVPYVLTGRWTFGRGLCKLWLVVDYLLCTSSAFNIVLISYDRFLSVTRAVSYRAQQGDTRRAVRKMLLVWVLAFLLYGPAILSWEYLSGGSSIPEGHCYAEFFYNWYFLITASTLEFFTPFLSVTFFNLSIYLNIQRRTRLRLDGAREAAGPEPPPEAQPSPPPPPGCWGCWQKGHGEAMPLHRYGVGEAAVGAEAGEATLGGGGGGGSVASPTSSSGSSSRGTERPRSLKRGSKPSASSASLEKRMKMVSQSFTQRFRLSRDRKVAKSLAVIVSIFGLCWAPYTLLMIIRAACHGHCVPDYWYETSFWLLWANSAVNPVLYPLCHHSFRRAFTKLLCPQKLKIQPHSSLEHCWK

N-[2-({3-[3-(1H-Imidazol-4-yl)propoxy]phenyl}methylamino)ethyl]acetamide [Compound 14a]
hH3 pKi [1]: 5.91 ± 0.01

N-[2-({3-[5-(1H-Imidazol-4-yl)pentyloxy]phenyl}methylamino)ethyl]acetamide [Compound 14c]
hMT2 pKi (human MT2 receptor [2]): 6.28 ± 0.10
hH3 pKi [1]: 6.28 ± 0.03
hMT1 pKi (human MT1 receptor [3]): 6.09 ± 0.12

N-[2-({3-[6-(1H-Imidazol-4-yl)hexyloxy]phenyl}methylamino)ethyl]acetamide [Compound 14d]
functional behaviour at MT1 receptor in the GTPγS assay (human MT1 receptor [4]; GTPγS assay): antagonist
hMT1 IAR (relative intrinsic activity) (human MT1 receptor [4]; [35S]GTPγS binding, NIH3T3 cells expressing human MT1, relative to melatonin): −0.26 ± 0.09
hMT2 pKi (human MT2 receptor [2]): 6.76 ± 0.06
hH3 pKi [1]: 6.22 ± 0.09
functional behaviour at MT2 receptor in the GTPγS assay (human MT2 receptor [5]; GTPγS assay): antagonist
hMT2 IAR (relative intrinsic activity) (human MT2 receptor [5]; [35S]GTPγS binding, NIH3T3 cells expressing human MT2, relative to melatonin): −0.35 ± 0.19
hMT1 pKi (human MT1 receptor [3]): 6.79 ± 0.01

Source: paper PMC4200786, “Synthesis and Characterization of New Bivalent Agents as Melatonin- and Histamine H3-Ligands” (International Journal of Molecular Sciences, 2014)
